Counter-ions that a name gives are not always drawn. Like-named read-outs stand apart in the source and are kept apart here.

A short description of series [1]: Measurement of the entrapment ratio (ultracentrifugation, HPLC of active compound in the filtrate). The class given is physicochemical. The settings on record: E7107, internal phase 250 mM HP-β-cyclodextrin/100 mM citric acid (pH=5.5). On the procedure:
The entrapment ratio was determined as described below.
The entrapment ratio was calculated using the formula below.

Series [2] relates to WiDr, human colon cancer cell line. As to the kind of experiment: Therapeutic effect of E7107 on tumor growth in WiDr cancer-bearing nude mice (Embodiment 10). The class given is in vivo. To be noted: 2.5 mg/kg single dose into caudal vein; 5 days after administration. The method, then:
(§1) WiDr (obtained from Dainippon Sumitomo Pharma Co., Ltd.), which is a human colon cancer cell line, was cultured and grown in a 10% bovine fetal serum-containing RPMI1640 culture. The cells were separated from the flask using 0.05% Trypsin-EDTA solution and collected. After washing with PBS, the cells were suspended in Hank's Balanced Salt Solution (manufactured by GIBCO) so as to be 5×10^7 cells/mL and kept on ice. 100 μL of cell suspension liquid was subcutaneously injected in the right ventral portion of 6- to 8-week old nude mice (CLEA Japan, Inc.). Each mouse was observed daily, and notes were made appropriately in cases where abnormal conditions were found. Calipers were used to measure the tumor size over time, and the tumor size was calculated based on the calculation formula: major axis×(minor axis squared)÷2. Moreover, the mouse body weight was also measured over time. At the point when the tumor size was 100 to 200 mm^3, the mice were separated into groups such that the average values of the tumor sizes and the mouse body weights were uniform among the test groups (five mice per test group). […]
(§2) The tumor-growth suppression effect and the body weight loss 5 days after administration were statistically analyzed by a parametric method. […]

Series [3] in a line: Body weight of WiDr cancer-bearing nude mice (Embodiment 10). The class given is in vivo. To be noted: average body weight; 2.5 mg/kg single dose; 5 days after administration. On the procedure:
as §1, §2

Series [4] can be described thus: Eribulin mesylate blood plasma and tumor tissue PK in LOX cancer-bearing mice (Embodiment 11). The class given is in vivo. The settings on record: female, NU/NU nude, mouse, iv. On the procedure: A blood sample was taken and tumor tissue extraction was carried out with a cardiac puncture at fixed periods after administration (15 minutes, 30 minutes, 1, 2, 4, 8, 12, 24, 36, and 48 hours) (n=3). The blood was sampled in a test tube containing heparin, and within 30 minutes of the sampling, the blood was separated by centrifuging at 1,500×g for 10 minutes at 4° C. to obtain the blood plasma. All of the tumor tissue was extracted, washed with PBS, and wiped with water-absorbent paper, and then the tissue weight was immediately weighed. The tissue was placed in a test tube and cooled in ice water, and then stored at −80° C. until analysis was carried out.
The PK parameters were calculated using non-compartment model analysis software (WinNonlin version 5.0.1).

In series [5] the test system is WiDr, human colon cancer cell line. As to the kind of experiment: Antitumor activity of eribulin mesylate in WiDr cancer-bearing nude mice (Embodiment 12, FIG. 5). Type of series: in vivo. The settings on record: 2 mg/kg; caudal vein, 2 times in 7-day intervals; five mice per group. On the procedure:
WiDr, which is a human colon cancer cell line, was cultured and grown in a 10% bovine fetal serum-containing RPMI1640 culture. The cells were separated from the flask using 0.05% Trypsin-EDTA solution and collected. After washing with PBS, the cells were suspended in Hank's Balanced Salt Solution (manufactured by Gibco BRL Co. Ltd.) so as to be 5×10^7 cells/mL and kept on ice. 0.1 mL of cell suspension liquid were subcutaneously injected in the right ventral portion of 7-week old nude mice (Charles River Laboratories Japan, Inc.). Each mouse was observed daily, and notes were made appropriately in cases where abnormal conditions were found. Calipers were used to measure the tumor size over time, and the tumor size was calculated based on the calculation formula: major axis×(minor axis squared)÷2. At the point when the tumor size was 100 to 200 mm^3, the mice were separated into groups such that the average values of the tumor sizes and the mouse body weights were uniform among the test groups (five mice per test group), and the drug was administered into the caudal vein (0.2 mL/20 g; 2 times in 7-day intervals).

Series [6] has as its system FaDu, human pharyngeal squamous cell carcinoma line. As to the kind of experiment: Antitumor activity of eribulin mesylate in FaDu cancer-bearing nude mice (Embodiment 13, FIG. 6). The class given is in vivo. To be noted: 4.0 mg/kg free bodies, caudal vein, 3 times in 7-day intervals. The method, then: FaDu (obtained from the American Type Culture Collection), which is a human pharyngeal squamous cell carcinoma line, was cultured and grown in a 10% bovine fetal serum-containing MEM culture. The cells were separated from the flask using 0.05% Trypsin-EDTA solution and collected. After washing with PBS, the cells were suspended in PBS so as to be 5×10^7 cells/mL and then kept on ice. 0.1 mL of cell suspension liquid were subcutaneously injected in the right ventral portion of 6-week old nude mice (Charles River Laboratories Japan, Inc.). Each mouse was observed daily, and notes made appropriately in cases where abnormal conditions were found. Calipers were used to measure the tumor size over time, and the tumor size was calculated based on the calculation formula: major axis×(minor axis squared)÷2. At the point when the tumor size was 100 to 200 mm^3, the mice were separated into groups such that the average values of the tumor sizes and the body weights of mice were uniform among the test groups (five mice per test group), and the drug was administered into the caudal vein (0.2 mL/20 g; 3 times in 7-day intervals).

Series [7] has the same test system. Kind of series: Antitumor activity of eribulin mesylate in FaDu cancer-bearing nude mice (Embodiment 14, FIG. 7). To be noted: 4.0 mg/kg free bodies, caudal vein, 3 times in 7-day intervals. The class given is in vivo. On the procedure:
FaDu (obtained from the American Type Culture Collection), which is a human pharyngeal squamous cell carcinoma line, was cultured and grown in a 10% bovine fetal serum-containing MEM culture. The cells were separated from the flask using 0.05% Trypsin-EDTA solution and collected. After washing with PBS, the cells were suspended in PBS so as to be 5×10^7 cells/mL and kept on ice. 0.1 mL of cell suspension liquid was subcutaneously injected in the right ventral portion of 6-week old nude mice (Charles River Laboratories Japan, Inc.). Each mouse was observed daily, and notes were made appropriately in cases where abnormal conditions were found. Calipers were used to measure the tumor size over time, and the tumor size was calculated based on the calculation formula: major axis×(minor axis squared)÷2. At the point when the tumor size was 100 to 200 mm^3, the mice were separated into groups such that the average values of the tumor sizes and the mouse body weights were uniform among the test groups (five mice per test group), and the drug was administered into the caudal vein (0.2 mL/20 g; 3 times in 7-day intervals).

For series [8], the system named is ACHN, human renal cancer cell line. As to the kind of experiment: Antitumor activity of eribulin mesylate in ACHN cancer-bearing nude mice (Embodiment 15, FIG. 8). The class given is in vivo. The settings on record: free body 2 mg/kg, 3 mg/kg and 4 mg/kg, 3 times in 7-day intervals, 45 days after the start of administration. The method, then: ACHN (obtained from the American Type Culture Collection), which is a human renal cancer cell line, was cultured and grown in a 10% bovine fetal serum-containing MEM culture. The cells were separated from the flask using 0.05% Trypsin-EDTA solution and collected. After washing with PBS, the cells were suspended in PBS so as to be 5×10^7 cells/mL and then kept on ice. 0.1 mL of cell suspension liquid was subcutaneously injected in the right ventral portion of 6-week old nude mice (Charles River Laboratories Japan, Inc.). Each mouse was observed daily, and notes were made appropriately in cases where abnormal conditions were found. Calipers were used to measure the tumor size over time, and the tumor size was calculated based on the calculation formula: major axis×(minor axis squared)÷2. At the point when the tumor size was 150 to 200 mm^3, the mice were separated into groups such that the average values of the tumor sizes and the mouse body weights were uniform among the test groups (five mice per test group), and the drug was administered into the caudal vein (0.2 mL/20 g; 3 times in 7-day intervals).

The nature of series [9]: Maximum tolerance dose of eribulin mesylate free bodies. Type of series: in vivo. To be noted: free body of eribulin mesylate, caudal vein, nude mice.
For series [10] the following is noted: complex with HP-β-cyclodextrin, Non-patent Literature 6, cited from earlier work.
Where [11] appears, read: blood plasma, 1.0 mg/kg into caudal vein, LOX cancer-bearing mice.
Setting [12] is: tumor tissue, 1.0 mg/kg into caudal vein, LOX cancer-bearing mice.

For the compound `CCC(O)C(C)C1OC1CC(C)(O)/C=C/C=C(\C)C1OC(=O)CC(O)CCC(C)(O)C(OC(=O)N2CCN(C3CCCCCC3)CC2)/C=C/C1C` (stereo not drawn) [E7107, (8E,12E,14E)-7-{(4-cycloheptylpiperazin-1-yl)carbonyl}oxy-3,6,16,21-tetrahydroxy-6,10,12,16,20-pentamethyl-18,19-epoxytricosa-8,12,14-trien-11-olide], the “Entrapment ratio (%)” value in series [1] (5° C., 5 minutes) was determined as 0%; in [1] (5° C., 1 hour), 0%; in series [1] (5° C., 6 hours), 0%; in series [1] (20° C., 1 minute) it was 0%; in series [1] (20° C., 5 minutes) it was 0%; in series [1] (20° C., 1 hour), 13.1%. Besides, the “Entrapment ratio (%)” value in series [1] (20° C., 6 hours) was 49.6%; in [1] (40° C., 1 minute), 4.1%; in series [1] (40° C., 5 minutes), 87.5%; in series [1] (50° C., 1 minute) it was 56.8%; in series [1] (60° C., 1 minute), 99.2%. In addition, the “Tumor (mm^3)” value in [2] came to 204.34 mm^3. The “Body weight” value in [3] was 20.32 g.

As usually defined, the MRT is a mean duration of stay, worked out from the concentration-time curve. In general, clearance refers to a measure of how efficiently the substance is removed, as volume per time. Read a low clearance as a low capacity for elimination. By half-life is commonly meant the time in which the quantity being followed falls by half. What is called AUC(0-inf) is total exposure, with the tail of the curve extrapolated. Read a high AUC(0-inf) as high exposure. The AUC(0-t) is the area under the concentration-time curve up to a stated or last time point. The low end stands for low exposure, the high end for high exposure. What is called Cmax is the peak of the concentration-time curve. For orientation: Tmax means the time from dosing to the highest level. On to `C=C1C[C@@H]2CC[C@@]34C[C@H]5O[C@H]6[C@@H](O3)[C@H]3O[C@H](CC[C@@H]3O[C@H]6[C@H]5O4)CC(=O)C[C@@H]3[C@@H](OC)[C@@H](C[C@H](O)CN)O[C@H]3C[C@H]3O[C@@H](CC[C@@H]1O2)C[C@@H](C)C3=C` [eribulin mesylate], for which, in [4] (setting [11]), the MRT was found to be 3.3 h, the clearance was 40.3 mL/min/kg and the half-life was 3.7 h. Also, the Vd in series [4] (blood plasma, 1.0 mg/kg into caudal vein, LOX cancer-bearing mice, read-out: Vss) was found to be 8.03 L/kg. Moreover, in series [4] (setting [12]), the AUC(0-inf) stood at 6290 ng·h/mL, the AUC(0-t) came out at 4650 ng·h/mL, the Cmax stood at 323 ng/g and the mean residence time (MRT) came out at 27.7 h. Moreover, in [4] (setting [12]), the time of peak concentration (Tmax) came out at 0.25 h and the half-life was 17.8 h. Also, in series [4] (plasma, 1 mg/kg), the AUC(0-inf) was 365 ng·h/mL and the AUC(0-t) turned out to be 363 ng·h/mL. In addition, the “Complete disappearance of the tumor / mice completely healed” value in [5] was 2 out of 5. Besides, the Tumor-reducing effect result in series [6] was “tumor-reducing effect was not obtained”. Further, the Tumor-reducing effect entry in [7] is reported as “tumor-reducing effect was not obtained”. In addition, in series [8], the “Tumor volume versus the untreated group” value is “no significant difference”. Besides, in [9], the Maximum tolerance dose was 4 mg/kg. In series [9] (listed as free bodies), the Maximum tolerance dose was 4.0 mg/kg.

In the case of `CC(C(=O)O)c1cccc(C(=O)c2ccccc2)c1` (stereo not drawn) [ketoprofen], the Entrapment ratio result in series [10] (MLVs (multilamellar vesicles)) was “approximately 75%”; in series [10] (SUVs (small unilamellar vesicles)), “approximately 55%”.

Source of the values: US9968583B2, “Method of manufacture of liposome composition” (EISAI R & D MANAGEMENT CO., LTD., priority 2009, dated 2018).
